{"source": "PubChem BioAssay AID2305", "about": "(GlaxoSmithKline (GSK), 2010)"}
{"tested_on": "P. falciparum 3D7 growth, pLDH absorbance", "assay": "P. falciparum 3D7 growth inhibition, dose response, strain 3D7 (AID 2305)", "units": {"IC50": "µM"}}
{"smiles": "N#Cc1ccc(N2CCN(Cc3cccc(-c4ccc(-c5nc6ccccc6[nH]5)cc4)c3)CC2)nc1", "IC50": 1.24}
{"smiles": "NC(N)=Nc1nc(-c2ccc(NCc3ccc(CNc4cccc(-c5csc(N=C(N)N)n5)c4)cc3)cc2)cs1", "IC50": 0.31}
{"smiles": "COc1ccc2nccc([C@@H](O)CN3CCC(NCc4ccc5nsnc5c4)CC3)c2c1", "IC50": 0.96}
{"smiles": "N#Cc1ccc(NC2(C(=O)N3CCN(c4cccc(Cl)c4)CC3)CC2)c2ccccc12", "IC50": 1.15}
{"smiles": "N#Cc1cccc(CN2CCCN(Cc3ccc(C(=O)Nc4ccc(Cl)cc4)cc3)CC2)c1", "IC50": 0.88}
{"smiles": "Nc1c(Cl)cc(C(O)CNCCCCCOCCc2ccccc2)cc1C(F)(F)F", "note": "(stereo not given)", "IC50": 0.98}
{"smiles": "Cc1cccc2[nH]c(-c3ccc(-c4ccc(CN5CCCCC5CO)cc4)cc3)nc12", "note": "(stereo not given)", "IC50": 0.81}
{"smiles": "CCCCNC(=O)c1cc(CNC2CCCCC2)ccc1-c1cccc(CNCc2ccc(-c3ccccc3)cc2)c1", "IC50": 0.53}
{"smiles": "Nc1nccc2ccc(-c3cccc(OCc4ccccc4)c3)cc12", "IC50": 0.29}
{"smiles": "Cc1cccc2[nH]c(-c3ccc(-c4ccc(NC(=O)Nc5ccc(F)c(F)c5F)cc4)cc3)nc12", "IC50": 0.27}
{"smiles": "Fc1ccc2nc(-c3ccc(-c4ccc(CNCCN5CCNCC5)cc4)s3)[nH]c2c1", "IC50": 0.78}
{"smiles": "COC(=O)C1(NC(=O)c2ccc(-n3nc(C)c(-c4ccccc4)c3N)cc2)CCCC1", "IC50": 0.37}
{"smiles": "CCC(C)NC(=O)Nc1ccc(-c2cccc(-c3nc4ccc(C(F)(F)F)cc4[nH]3)c2)cc1", "note": "(stereo not given)", "IC50": 0.62}
{"smiles": "CC(C)n1ncc2c3c(N)nc(N)nc3ccc21", "IC50": 0.33}
{"smiles": "CN(C)CCCn1cc(C(=O)OC2C[C@H]3CC[C@@H](C2)N3C)c2cc(-c3ccccc3)ccc21", "note": "(stereo not given in full)", "IC50": 0.84}
{"smiles": "c1ccc(CCNc2ncnc3c2[nH]c2ccccc23)cc1", "IC50": 0.6}
{"smiles": "Cc1ccc(/C=C/C(=O)NCCCCCN2CCC(c3c[nH]c4ccccc34)CC2)cc1", "IC50": 1.01}
{"smiles": "Cc1cnc(C(=O)Nc2cccc(-c3csc(-c4nc5ccccc5[nH]4)c3)c2)cn1", "IC50": 0.27}
{"smiles": "Cc1nc(N/C=C/c2ccc(O)cc2)cc(N2CCCC2)n1", "IC50": 1.07}
{"smiles": "CCN(CC)c1ccc2nc(N)nc(N)c2c1Cl", "IC50": 0.03}
{"smiles": "CN1CCN(CCCCNc2c3ccccc3nc3ccccc23)CC1", "IC50": 0.7}
{"smiles": "CNC(=O)CC(=O)NCCc1ccc(Cl)cc1", "IC50": 0.81}
{"smiles": "O=C(Nc1ccsc1C(=O)NC1CCCCC1)c1ccc(F)cc1", "IC50": 1.21}
{"smiles": "COc1cc(NCC(C)CNCc2cn(Cc3ccccc3)c3ccccc23)nc2ccccc12", "note": "(stereo not given)", "IC50": 0.63}
{"smiles": "Cc1cnc(NCCc2ccc(F)cc2)nc1N[C@@H](CC(C)C)C(=O)Nc1ccccc1", "IC50": 0.97}
{"smiles": "CCN1CCC(N(Cc2ccc(-c3ccc(C(F)(F)F)cc3)cc2)C(=O)CCCCn2c(CCc3cccc(F)c3F)nc(=O)c3ccccc32)CC1", "IC50": 0.99}
{"smiles": "NC(=O)c1cccc(Nc2nccc(Nc3ccc(Oc4ccc5ccccc5c4)cc3)n2)c1", "IC50": 0.81}
{"smiles": "c1ccc2c(CNCCCCCCNCc3c(OCC4CC4)ccc4ccccc34)c(OCC3CC3)ccc2c1", "IC50": 0.93}
{"smiles": "Cc1cccc2[nH]c(-c3cccc(-c4ccc(NC(=O)c5cccc(C(N)=O)c5)cc4)c3)nc12", "IC50": 0.41}
{"smiles": "O=C(Nc1cncc(NC(=O)c2ccc(Cl)c(Cl)c2)c1)c1ccc(Cl)c(Cl)c1", "IC50": 0.73}
{"smiles": "COc1ccc2nccc([C@@H](O)CN3CCC(NC(=O)/C(=C/c4ccccc4)c4ccc(-c5ccccc5)cc4)CC3)c2c1", "IC50": 1.05}
{"smiles": "CCN(CCO)Cc1ccc(-c2ccc(NS(=O)(=O)c3cccc4cccnc34)cc2)cc1", "IC50": 0.99}
{"smiles": "CCc1sc(N2CCN(C)CC2)nc1C(=O)Nc1ccc(F)cc1C(F)(F)F", "IC50": 0.18}
{"smiles": "CN(c1ccccc1)c1ccnc(/N=C(\\N)Nc2ccc(Cl)cc2)n1", "IC50": 1.09}
{"smiles": "O=C1CCCN1CCCNCc1cccc(-c2ccc(-c3nc4ccc(C(F)(F)F)cc4[nH]3)cc2)c1", "IC50": 0.3}
{"smiles": "O=C(Nc1cc(C(F)(F)F)cc(C(F)(F)F)c1)N1CCC(CN2CCC(c3c[nH]c4ccccc34)CC2)CC1", "IC50": 0.19}
{"smiles": "Cc1nnc2c(NC(=O)NC3CCCC3)cc3cc(-c4ccc(CN5CCN(C)CC5)cc4)ccc3n12", "IC50": 1.02}
{"smiles": "Cc1ccc(Nc2nccc(NCC(O)c3ccc(C(F)(F)F)cc3)n2)cc1", "note": "(stereo not given)", "IC50": 0.49}
{"smiles": "COc1ccc2nccc([C@@H](O)CN3CCC(NC(=O)/C=C/c4ccc5cc(C)[nH]c5c4)CC3)c2c1", "IC50": 0.73}
{"smiles": "COc1ccc2nccc([C@@H](O)CN3CCC(NC(=O)C(c4ccsc4)N4CCN(c5ccccc5)CC4)CC3)c2c1", "note": "(stereo not given in full)", "IC50": 0.44}
{"smiles": "CCOC(=O)c1ccc(NCc2ccccn2)cc1", "IC50": 0.63}
{"smiles": "O=C1Nc2cccc3c2C1(CCCCN1CCC(c2c[nH]c4cc(C(F)(F)F)ccc24)CC1)CCC3", "note": "(stereo not given)", "IC50": 0.72}
{"smiles": "N#Cc1ccc2c(c1)CN(CCC1CCC(NC(=O)c3cc4ccccc4cc3N)CC1)CC2", "note": "(stereo not given)", "IC50": 1.04}
{"smiles": "CCc1nn2c(Nc3ccncc3)cc(C)nc2c1-c1ccccc1", "IC50": 0.2}
{"smiles": "COc1ccc2nccc([C@@H](O)CN3CCC(NC(=O)c4cc5c(F)cc(F)cc5[nH]4)CC3)c2n1", "IC50": 1.39}
{"smiles": "CN(CCCNC(=S)NC12CC3CC(CC(C3)C1)C2)CCCNc1ccnc2cc(Cl)ccc12", "IC50": 0.12}
{"smiles": "O=C(Nc1cccnc1)c1cn(-c2ccccc2)nc1-c1cccs1", "IC50": 0.87}
{"smiles": "CCCC(C)NC[C@@H](O)[C@H](Cc1ccccc1)NC(=O)c1cc(NCC)cc(N2CCCCS2(=O)=O)c1", "note": "(stereo not given in full)", "IC50": 0.16}
{"smiles": "COc1ccc(CON2C(N)=NC(N)=NC2(C)C)cc1OC", "IC50": 0.01}
{"smiles": "C(=C(c1cccs1)c1cccs1)c1ccc(CNC2CCN(Cc3ccccc3)CC2)cc1", "IC50": 0.16}
{"smiles": "COc1ccc(-c2cnc(NCc3ccccc3)nc2)cc1CNC1CCN(C)CC1", "IC50": 0.78}
{"smiles": "CN(C)c1ccc2c(c1)Sc1cc(N(C)C)ccc1N2C(=O)c1cccc(C(=O)O)c1", "IC50": 0.18}
{"smiles": "CC(=O)Nc1ncc(C(=O)Nc2cccc(-c3cccc(-c4nc5ccc(C(F)(F)F)cc5[nH]4)c3)c2)s1", "IC50": 0.18}
{"smiles": "CCCc1cc(Cc2cnc(N)nc2N)cc2c1OC(C)(C)C2", "IC50": 1.08}
{"smiles": "COc1ccc(C=NNc2nc(-c3ccccc3)cc(=O)[nH]2)cc1OC", "IC50": 0.59}
{"smiles": "CC(C)NCc1ccc(-c2cccc(NC(=O)c3cccc(C#N)c3)c2)cc1", "IC50": 0.41}
{"smiles": "CCc1c(CCNCCCCCCNC(C)(C)Cc2ccc3c(c2CC)OCO3)ccc(OC)c1OC", "IC50": 0.93}
{"smiles": "CCN1CCN(Cc2ccc3nc(-c4cc(C)n(Cc5cc(Cl)ccc5OCc5ccccc5)n4)[nH]c3c2)CC1", "IC50": 0.77}
{"smiles": "COc1cc2nc(N3CCC(CNC(=O)c4ccc(-c5ccc(C(=O)N(C)C)cc5)c(OCCO)c4)CC3)nc(N)c2cc1OC", "IC50": 0.73}
{"smiles": "Nc1ccc(-c2ccc3ccnc(N)c3c2)cc1", "IC50": 0.68}
{"smiles": "CCN(CCCN1CCCCC1)c1cc(C)nc(Nc2ccc(C(F)(F)F)cc2)n1", "IC50": 0.37}
{"smiles": "Oc1ccc2c(CNC3CCCCC3)c(O)ccc2c1CNC1CCCCC1", "IC50": 0.04}
{"smiles": "CCC1CCCCN1S(=O)(=O)c1ccc(NC(=O)c2cc(C)on2)cc1", "note": "(stereo not given)", "IC50": 1.24}
{"smiles": "O=C(Nc1cccc(C(F)(F)F)c1)c1cccc(S(=O)(=O)NC2CCN(CC3CCCCC3)C2)c1", "note": "(stereo not given)", "IC50": 0.59}
{"smiles": "Cc1cnc(CN(Cc2ccc(-c3ccc(CNCCc4ccc(S(C)(=O)=O)cc4)cn3)cc2)C(=O)c2ccc([N+](=O)[O-])c(C)c2)cn1", "IC50": 0.92}
{"smiles": "COC(=O)c1ccc(CCCNCC(O)c2cccc(C(F)(F)F)c2)cc1", "note": "(stereo not given)", "IC50": 0.8}
{"smiles": "Nc1nc(N)c2c(ccc3c2ccn3CCCCO)n1", "IC50": 0.12}
{"smiles": "Cc1[nH]c(C)c(-c2ccc(Oc3ccc(S(C)=O)cc3)cc2)c(=O)c1Br", "note": "(stereo not given)", "IC50": 0.76}
{"smiles": "COc1cc2nc(NCC3CCCCC3)nc(NCc3ccccc3)c2cc1OC", "IC50": 0.14}
{"smiles": "O=C(/C=C/c1ccc(C(F)(F)F)cc1)NCCCCCN1CCCN(C(=O)Nc2ccc(Cl)c(C(F)(F)F)c2)CC1", "IC50": 0.2}
{"smiles": "CC(C)Oc1cc2c(cc1NS(=O)(=O)c1ccc(-c3ccc(Cl)cc3)cc1)CCN(C)CC2", "IC50": 1.04}
{"smiles": "CC1(C)CC(NCCCCCCCOc2ccc(OCc3ccccc3)cc2)CC(C)(C)N1", "IC50": 0.83}
{"smiles": "Clc1ccc2c(NCc3ccccn3)ccnc2c1", "IC50": 0.66}
{"smiles": "Cc1cc(N2CCN(C)CC2)nc2ccc(NC(=O)c3cccc(N(C)C)c3)cc12", "IC50": 0.95}
{"smiles": "OCC1CCN(Cc2ccc(-c3cccc(-c4nc5ccccc5[nH]4)c3)cc2)CC1", "IC50": 0.81}
{"smiles": "CCNc1cc(C(=O)N[C@@H](Cc2ccccc2)[C@H](O)CNCCCc2ccc(OC)cc2)cc(N2CCCC2=O)c1", "IC50": 0.56}
{"smiles": "CC1(C)N=C(N)N=C(N)N1O", "IC50": 0.19}
{"smiles": "CCc1c[nH]c2c(N3CCCS3(=O)=O)cc(C(=O)N[C@@H](Cc3ccccc3)[C@H](O)CNC3CCCCC3)cc12", "IC50": 0.77}
{"smiles": "O=c1cc(NCCC(CNCc2ccc(Br)o2)NCc2cc(Br)cc(Br)c2)[nH]c2ccccc12", "note": "(stereo not given)", "IC50": 0.86}
{"smiles": "CCn1nc(C(=O)NC2CCOc3ccccc32)c2ccccc2c1=O", "note": "(stereo not given)", "IC50": 1.23}
{"smiles": "O=C(NCc1ccccc1)NC(CCCN1CCC(Oc2cccc(Cl)c2)CC1)c1ccc(Cl)c(Cl)c1", "note": "(stereo not given)", "IC50": 0.86}
{"smiles": "O=[N+]([O-])c1ccc2c(c1)c1ccccc1n2Cc1ccccc1O", "IC50": 1.11}
{"smiles": "COCCNCc1cccc(-c2ccc(CN(C(=O)NC3CCCCC3)C3CCN(Cc4ccccc4)CC3)cc2)c1", "IC50": 0.76}
{"smiles": "CN1CCCc2ccc(NC(=O)Nc3ccc(-c4ccccc4)cc3)cc2C1", "IC50": 0.38}
{"smiles": "CC(=O)c1ccc(S(=O)(=O)N2CCC(C(=O)Nc3ccccc3N3CCCC3)CC2)cc1", "IC50": 0.83}
{"smiles": "O=c1c(Br)ccccc1Br", "IC50": 0.79}
{"smiles": "Clc1ccc(CNc2ccnc(NCCc3coc4ccccc34)n2)c(Cl)c1", "IC50": 1.17}
{"smiles": "CCOc1cc(Cc2cnc(N)nc2N)cc(OC)c1OC", "IC50": 0.91}
{"smiles": "c1cc2c3c(cccc3c1)NC(CCCCCCCCC1=Nc3cccc4cccc(c34)N1)=N2", "IC50": 0.83}
{"smiles": "O=C(NCCN1CCC(NC(=O)c2ccc(-c3ccccn3)s2)CC1)c1ccc(Cl)c(Cl)c1", "IC50": 0.88}
{"smiles": "O=C(Nc1ccc(Cl)cc1)c1ccc(CN2CCCN(Cc3ccsc3)CC2)cc1", "IC50": 0.86}
{"smiles": "COc1ccc2nc(C)cc(NN=Cc3ccccc3F)c2c1", "IC50": 0.37}
{"smiles": "CC(C)(C)NC(=O)c1ccc(Oc2ccc(OC(F)(F)F)cc2)c(NC(=O)C(C)(C)C)c1", "IC50": 0.98}
{"smiles": "COc1ccc2nc3cc(Cl)ccc3c(Nc3ccc(O)c(CN4CC5CCC(CC5)C4)c3)c2c1", "IC50": 0.17}
{"smiles": "O=C(CSc1nc(-c2ccccc2Cl)ns1)Nc1cccc(Cl)c1", "IC50": 0.79}
{"smiles": "CCC(=C(CC)c1ccc(O)c(CNC2CCCCC2)c1)c1ccc(O)c(CNC2CCCCC2)c1", "IC50": 0.15}
{"smiles": "O=C(NCCCc1ccccc1)c1csc(C2CCCN(C(=O)c3ccc(O)c(-c4ccccc4)c3)C2)n1", "note": "(stereo not given)", "IC50": 0.91}
{"smiles": "CC(C)OC(=O)c1ccc(NC(=O)N[C@@H](Cc2ccc(O)cc2)C(=O)NC2CCC(CCN3[C@@H]4CC[C@H]3c3ccccc34)CC2)cc1", "note": "(stereo not given in full)", "IC50": 0.83}
{"smiles": "Oc1ccc(CCNc2nc(NCCCOc3ccccc3-c3ccc(F)cc3)nc(N3CCNCC3)n2)cc1", "IC50": 1.08}
{"smiles": "COc1ccc(C(=O)[C@H]2C[C@@H]2CN(C)CC(O)c2cc(C)c(OC)cc2C)cc1", "note": "(stereo not given in full)", "IC50": 0.97}
